Our source for the inhibition values is patent publication US9416115B2, “Fused heterocyclic compounds as ion channel modulators” (Gilead Sciences, Inc., priority 2013, dated 2016).

In assay [1] the target is wild-type human cardiac sodium channel, hNav1.5 (Homo sapiens, UniProt Q14524). In words: Peak INa screening assay (tonic block and use-dependent block). It counts as cell-based. In outline:
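HEK293 cells stably expressing hNav1.5 (no beta subunits), automated whole-cell patch clamp at 23-25° C, 40 mM Na+ bath (choline substitution), pH 7.35. Compound at 1 or 3 μM, added twice then 200 s equilibration; tonic block by steps to −20 mV from −100 mV at 0.1 Hz, use-dependent block at pulse 50 of a 3 Hz train, rundown-corrected versus compound-free.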

The next assay deals with T1, hNaV1.2 (SCN2A) (Homo sapiens, UniProt Q99250).
T1 construct: expressed in transfected cells
T1 sequence (Q99250 whole entry): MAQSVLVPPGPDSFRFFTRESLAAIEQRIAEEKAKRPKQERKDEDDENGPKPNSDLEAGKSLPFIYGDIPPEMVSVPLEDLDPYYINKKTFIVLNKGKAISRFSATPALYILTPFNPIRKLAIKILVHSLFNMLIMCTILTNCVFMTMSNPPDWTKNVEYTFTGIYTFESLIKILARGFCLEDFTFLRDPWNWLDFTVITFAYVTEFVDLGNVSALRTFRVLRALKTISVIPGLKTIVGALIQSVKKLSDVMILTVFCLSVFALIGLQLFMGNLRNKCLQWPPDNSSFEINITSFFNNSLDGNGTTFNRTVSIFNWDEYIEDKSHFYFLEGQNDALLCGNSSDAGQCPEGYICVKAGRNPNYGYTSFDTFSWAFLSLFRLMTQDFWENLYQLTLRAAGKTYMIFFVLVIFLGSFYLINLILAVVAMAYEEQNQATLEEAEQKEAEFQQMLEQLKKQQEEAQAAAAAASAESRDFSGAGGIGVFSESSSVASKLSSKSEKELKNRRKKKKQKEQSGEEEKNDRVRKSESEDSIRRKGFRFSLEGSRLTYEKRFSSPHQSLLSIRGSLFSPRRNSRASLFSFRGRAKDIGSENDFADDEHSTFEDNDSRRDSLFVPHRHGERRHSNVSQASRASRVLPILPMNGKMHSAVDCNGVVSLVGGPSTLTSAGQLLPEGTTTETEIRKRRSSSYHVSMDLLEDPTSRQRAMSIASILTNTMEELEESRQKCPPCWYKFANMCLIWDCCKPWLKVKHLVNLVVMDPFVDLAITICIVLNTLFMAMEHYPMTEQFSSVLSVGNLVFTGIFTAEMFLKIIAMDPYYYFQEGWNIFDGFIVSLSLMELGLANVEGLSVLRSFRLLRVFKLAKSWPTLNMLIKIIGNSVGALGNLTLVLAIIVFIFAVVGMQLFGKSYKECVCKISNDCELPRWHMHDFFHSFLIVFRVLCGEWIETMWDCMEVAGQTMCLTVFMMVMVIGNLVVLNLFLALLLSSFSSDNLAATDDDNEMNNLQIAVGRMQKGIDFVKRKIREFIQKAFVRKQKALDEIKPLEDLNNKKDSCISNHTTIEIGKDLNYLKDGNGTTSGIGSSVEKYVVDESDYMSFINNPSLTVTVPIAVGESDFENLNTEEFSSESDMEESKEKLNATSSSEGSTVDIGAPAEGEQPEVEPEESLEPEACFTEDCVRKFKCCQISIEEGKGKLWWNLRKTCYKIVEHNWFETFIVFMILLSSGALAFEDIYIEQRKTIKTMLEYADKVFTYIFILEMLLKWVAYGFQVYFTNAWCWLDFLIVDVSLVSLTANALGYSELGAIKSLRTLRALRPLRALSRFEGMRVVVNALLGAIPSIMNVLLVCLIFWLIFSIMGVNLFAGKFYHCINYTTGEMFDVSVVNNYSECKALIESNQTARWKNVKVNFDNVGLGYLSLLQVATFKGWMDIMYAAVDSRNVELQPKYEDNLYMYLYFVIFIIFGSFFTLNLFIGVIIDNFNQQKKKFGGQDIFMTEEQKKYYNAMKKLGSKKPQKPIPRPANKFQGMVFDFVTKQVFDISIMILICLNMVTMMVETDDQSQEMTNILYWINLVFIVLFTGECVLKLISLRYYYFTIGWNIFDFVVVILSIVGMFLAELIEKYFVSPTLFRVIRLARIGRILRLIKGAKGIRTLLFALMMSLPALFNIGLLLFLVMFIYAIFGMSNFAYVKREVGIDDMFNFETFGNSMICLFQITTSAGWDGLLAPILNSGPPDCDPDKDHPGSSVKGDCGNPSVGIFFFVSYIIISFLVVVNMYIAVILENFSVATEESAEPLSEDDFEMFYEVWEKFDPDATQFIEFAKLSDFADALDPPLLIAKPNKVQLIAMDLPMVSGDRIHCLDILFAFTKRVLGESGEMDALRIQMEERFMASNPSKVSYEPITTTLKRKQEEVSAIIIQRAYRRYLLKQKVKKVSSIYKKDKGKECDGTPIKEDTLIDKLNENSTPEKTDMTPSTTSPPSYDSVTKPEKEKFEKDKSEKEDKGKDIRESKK
T1 sequence (Q07699 19-218 partner): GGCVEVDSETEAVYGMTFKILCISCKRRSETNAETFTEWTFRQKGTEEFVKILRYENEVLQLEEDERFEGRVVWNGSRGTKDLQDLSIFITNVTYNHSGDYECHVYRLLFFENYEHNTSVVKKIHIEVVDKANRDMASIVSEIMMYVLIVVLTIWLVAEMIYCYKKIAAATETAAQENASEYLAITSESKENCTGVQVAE
T1 sequence (O60939 30-215 partner): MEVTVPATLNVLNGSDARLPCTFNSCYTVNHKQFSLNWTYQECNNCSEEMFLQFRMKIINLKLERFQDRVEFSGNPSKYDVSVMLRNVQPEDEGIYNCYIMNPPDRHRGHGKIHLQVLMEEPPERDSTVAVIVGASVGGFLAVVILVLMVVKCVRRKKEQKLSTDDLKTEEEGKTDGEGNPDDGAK
Nature of the assay: Use-dependent inhibition of the CNS Nav1.2 sodium channel. In kind it is cell-based. The note with it: use-dependent block, 25 Hz, pulse 20, read-out: Nav1.2 UDB 25 Hz 10 uM. In outline:
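Use-dependent block of human Nav1.2 was measured by automated whole-cell patch clamp (QPatch) in HEK-293 cells stably expressing hNaV1.2 with SCN1B and SCN2B. From a holding potential of −120 mV, a train of 20 pulses to 0 mV (20 ms, 25 Hz) was applied. Peak current at pulse 20 was normalized to the first pulse, and percent inhibition was calculated relative to compound-free recordings.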

The mark [2] stands for this setting: tonic block of Peak INa, 0.1 Hz, holding -100 mV, read-out: Peak TB 3 uM.
[3] abbreviates: use-dependent block of Peak INa, 3 Hz, pulse 50, read-out: Peak UDB 3 Hz 3 uM.

Like-named read-outs stand apart in the source and are kept apart here.

wild-type human cardiac sodium channel, hNav1.5, sequence (Q14524 whole entry): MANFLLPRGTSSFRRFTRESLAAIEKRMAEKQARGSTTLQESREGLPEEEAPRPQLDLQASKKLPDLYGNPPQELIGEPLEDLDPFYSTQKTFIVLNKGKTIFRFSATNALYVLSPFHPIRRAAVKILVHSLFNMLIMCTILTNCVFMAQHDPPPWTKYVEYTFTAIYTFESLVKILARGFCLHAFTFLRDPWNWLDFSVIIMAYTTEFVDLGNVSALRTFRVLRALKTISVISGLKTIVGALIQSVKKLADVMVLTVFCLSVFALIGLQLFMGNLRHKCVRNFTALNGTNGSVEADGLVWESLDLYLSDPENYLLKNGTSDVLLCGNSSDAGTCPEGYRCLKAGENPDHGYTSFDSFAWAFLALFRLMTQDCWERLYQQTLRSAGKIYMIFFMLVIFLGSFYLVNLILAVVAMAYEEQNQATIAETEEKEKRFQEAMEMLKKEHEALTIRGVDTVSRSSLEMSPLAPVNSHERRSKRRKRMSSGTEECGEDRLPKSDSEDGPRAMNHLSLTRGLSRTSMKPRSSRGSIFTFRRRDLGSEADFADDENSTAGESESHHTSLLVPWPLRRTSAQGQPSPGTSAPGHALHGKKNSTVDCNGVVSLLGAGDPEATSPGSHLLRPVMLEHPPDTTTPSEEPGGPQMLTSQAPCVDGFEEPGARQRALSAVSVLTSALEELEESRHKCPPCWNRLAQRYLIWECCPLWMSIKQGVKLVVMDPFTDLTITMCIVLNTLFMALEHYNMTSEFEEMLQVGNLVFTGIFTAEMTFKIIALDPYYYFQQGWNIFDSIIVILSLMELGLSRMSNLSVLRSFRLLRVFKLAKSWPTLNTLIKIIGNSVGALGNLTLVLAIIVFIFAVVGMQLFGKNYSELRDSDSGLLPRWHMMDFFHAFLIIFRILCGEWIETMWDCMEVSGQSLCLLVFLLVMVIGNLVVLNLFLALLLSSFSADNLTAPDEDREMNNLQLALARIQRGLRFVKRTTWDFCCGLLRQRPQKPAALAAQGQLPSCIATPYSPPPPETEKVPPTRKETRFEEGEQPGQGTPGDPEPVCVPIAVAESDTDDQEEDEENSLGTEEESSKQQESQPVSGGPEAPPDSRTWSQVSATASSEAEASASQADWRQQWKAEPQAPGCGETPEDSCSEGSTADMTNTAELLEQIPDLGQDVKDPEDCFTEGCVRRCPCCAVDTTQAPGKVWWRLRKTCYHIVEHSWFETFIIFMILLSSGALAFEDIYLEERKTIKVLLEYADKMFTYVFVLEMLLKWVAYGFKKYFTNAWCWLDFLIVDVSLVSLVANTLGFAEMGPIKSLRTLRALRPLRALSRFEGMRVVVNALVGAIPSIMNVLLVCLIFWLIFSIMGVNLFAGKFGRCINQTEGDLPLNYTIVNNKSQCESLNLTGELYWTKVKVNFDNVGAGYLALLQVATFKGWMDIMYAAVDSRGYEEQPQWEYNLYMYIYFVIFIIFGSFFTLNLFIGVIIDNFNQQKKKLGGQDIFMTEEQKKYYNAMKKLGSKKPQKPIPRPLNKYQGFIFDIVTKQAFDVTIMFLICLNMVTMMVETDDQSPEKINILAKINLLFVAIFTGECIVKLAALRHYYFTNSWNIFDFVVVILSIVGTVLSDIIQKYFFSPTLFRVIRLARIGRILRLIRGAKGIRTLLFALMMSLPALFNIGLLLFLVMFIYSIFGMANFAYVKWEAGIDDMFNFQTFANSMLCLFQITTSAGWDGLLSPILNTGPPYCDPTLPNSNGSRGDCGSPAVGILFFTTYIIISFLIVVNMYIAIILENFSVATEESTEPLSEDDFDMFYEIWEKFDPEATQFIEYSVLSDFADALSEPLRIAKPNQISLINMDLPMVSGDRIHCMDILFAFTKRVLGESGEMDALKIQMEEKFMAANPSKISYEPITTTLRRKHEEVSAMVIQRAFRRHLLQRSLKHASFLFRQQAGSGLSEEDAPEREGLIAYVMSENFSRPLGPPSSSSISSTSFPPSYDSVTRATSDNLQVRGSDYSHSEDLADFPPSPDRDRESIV

Turning to `FC(F)(F)Oc1ccc(-c2ccc3onc(OCCn4cncn4)c3c2)cc1` [Example 58, 3-(2-(1H-1,2,4-triazol-1-yl)ethoxy)-5-(4-(trifluoromethoxy)phenyl)benzo[d]isoxazole], the results for the inhibition at 3 µM in assay [1] (setting [2]) and in assay [1] (setting [3]) were 22.2% and under 5%, respectively. For the same molecule, the inhibition at 10 µM on hNaV1.2 (SCN2A) is 14.5%.
Taken in the same sequence, the figures for `FC(F)(F)Oc1ccc(-c2ccc3onc(Oc4ncccn4)c3c2)cc1` [Example 124, 3-(pyrimidin-2-yloxy)-5-(4-(trifluoromethoxy)phenyl)benzo[d]isoxazole] were 49.9%, under 5% and 44.9%.
Taken in the same sequence, the figures for `FC(F)(F)Oc1ccc(-c2ccc3onc(NCCn4cncn4)c3c2)cc1` [Example 137, N-(2-(1H-1,2,4-triazol-1-yl)ethyl)-5-(4-(trifluoromethoxy)phenyl)benzo[d]isoxazol-3-amine] were 43.9%, 17.4% and 86%.
Taken in the same sequence, the figures for `FC(F)(F)Oc1ccc(-c2ccc3onc(-n4cnc(Cl)c4)c3c2)cc1` [Example 140, 3-(4-chloro-1H-imidazol-1-yl)-5-(4-(trifluoromethoxy)phenyl)benzo[d]isoxazole] were 8.5%, under 5% and under 5%.
On to `Cc1ccnc(COc2noc3ccc(-c4ccc(OC(F)(F)F)cc4)cc23)n1` [Example 5, 3-((4-methylpyrimidin-2-yl)methoxy)-5-(4-(trifluoromethoxy)phenyl)benzo[d]isoxazole], for which the results for the inhibition at 3 µM in assay [1] (setting [2]) and in assay [1] (setting [3]) were 18% and under 5%, respectively. For the same molecule, the inhibition at 10 µM on hNaV1.2 (SCN2A) is under 5%.
Turning to `CC(C)c1nnc(COc2noc3ccc(-c4ccc(OC(F)(F)F)cc4)cc23)o1` [Example 100, 3-((5-isopropyl-1,3,4-oxadiazol-2-yl)methoxy)-5-(4-(trifluoromethoxy)phenyl)benzo[d]isoxazole], the inhibition at 3 µM in assay [1] (setting [2]) is 23.5%; in assay [1] (setting [3]), under 5%. At hNaV1.2 (SCN2A), the inhibition at 10 µM turned out to be 11%.
Taken in the same sequence, the figures for `COc1cc2onc(OCc3ncccn3)c2cc1-c1ccc(Cl)c(F)c1` [Example 13, 5-(4-chloro-3-fluorophenyl)-6-methoxy-3-(pyrimidin-2-ylmethoxy)benzo[d]isoxazole] were 10.7%, under 5% and 5.6%.
On the same counts, the results for `CC(C)[C@H](N)COc1noc2ccc(-c3ccc(OC(F)(F)F)cc3)cc12` [Example 118, (S)-3-methyl-1-((5-(4-(trifluoromethoxy)phenyl)benzo[d]isoxazol-3-yl)oxy)butan-2-amine] are 88.8%, 56.1% and 90.4%.
`COc1cc2onc(OCc3ncccn3)c2cc1-c1ccc(OC(F)(F)F)c(C)c1` [Example 14, 6-methoxy-5-(3-methyl-4-(trifluoromethoxy)phenyl)-3-(pyrimidin-2-ylmethoxy)benzo[d]isoxazole]: the inhibition at 3 µM in assay [1] (setting [2]) was 23.8%; in assay [1] (setting [3]), 6.4%. For the same molecule, the inhibition at 10 µM at hNaV1.2 (SCN2A) turned out to be 9.6%.
On the same counts, the results for `CC(=O)N1CCC[C@H]1COc1noc2ccc(-c3ccc(OC(F)(F)F)cc3)cc12` [Example 109, (S)-1-(2-(((5-(4-(trifluoromethoxy)phenyl)benzo[d]isoxazol-3-yl)oxy)methyl)pyrrolidin-1-yl)ethan-1-one] are 14.5%, under 5% and 39.3%.
Taken in the same sequence, the figures for `CC(C)(C)OC(=O)COc1noc2ccc(-c3ccc(OC(F)(F)F)cc3)cc12` [Example 157, tert-butyl 2-((5-(4-(trifluoromethoxy)phenyl)benzo[d]isoxazol-3-yl)oxy)acetate] were 15.6%, under 5% and under 5%.
On the same counts, the results for `C[C@@H](N)COc1noc2ccc(-c3ccc(OC(F)(F)F)cc3)cc12` [Example 117, (R)-1-((5-(4-(trifluoromethoxy)phenyl)benzo[d]isoxazol-3-yl)oxy)propan-2-amine] are 79.3%, 60.8% and 88.4%.
For `FC(F)(F)Oc1ccc(-c2ccc3onc(-n4cncn4)c3c2)cc1` [Example 136, 3-(1H-1,2,4-triazol-1-yl)-5-(4-(trifluoromethoxy)phenyl)benzo[d]isoxazole], the inhibition at 3 µM in assay [1] (setting [2]) is 10.5%; in assay [1] (setting [3]), under 5%. In addition, the inhibition at 10 µM at hNaV1.2 (SCN2A) is under 5%.
In the case of `CC(C)(C)c1cn(-c2noc3ccc(-c4ccc(OC(F)(F)F)cc4)cc23)cn1` [Example 143, 3-(4-(tert-butyl)-1H-imidazol-1-yl)-5-(4-(trifluoromethoxy)phenyl)benzo[d]isoxazole], the inhibition at 3 µM amounted to 39.8% in assay [1] (setting [2]) and 11.2% in assay [1] (setting [3]). Further, the inhibition at 10 µM on hNaV1.2 (SCN2A) was 57.1%.
Taken in the same sequence, the figures for `CCn1ccnc1COc1noc2ccc(-c3ccc(OC(F)(F)F)cc3)cc12` [Example 47, 3-((1-ethyl-1H-imidazol-2-yl)methoxy)-5-(4-(trifluoromethoxy)phenyl)benzo[d]isoxazole] were 21.7%, 8.5% and 31.5%.
Taken in the same sequence, the figures for `Cc1cc2onc(OCc3ncccn3)c2cc1-c1ccc(C(F)(F)F)cc1F` [Example 28, 5-(2-fluoro-4-(trifluoromethyl)phenyl)-6-methyl-3-(pyrimidin-2-ylmethoxy)benzo[d]isoxazole] were 21.6%, under 5% and under 5%.
As for `Cc1cc(OC(F)(F)F)ccc1-c1ccc2onc(OCc3ncccn3)c2c1` [Example 3, 5-(2-methyl-4-(trifluoromethoxy)phenyl)-3-(pyrimidin-2-ylmethoxy)benzo[d]isoxazole], the values for the inhibition at 3 µM in assay [1] (setting [2]) and in assay [1] (setting [3]) were 23.2% and 11.8%, respectively. Moreover, on hNaV1.2 (SCN2A), the inhibition at 10 µM was under 5%.
With `Cc1cc(-c2ccc3onc(OCc4ncccn4)c3c2)ccc1OC(F)(F)F` [Example 7, 5-(3-methyl-4-(trifluoromethoxy)phenyl)-3-(pyrimidin-2-ylmethoxy)benzo[d]isoxazole], the inhibition at 3 µM in assay [1] (setting [2]) is 16.3%; in assay [1] (setting [3]), under 5%. Further, the inhibition at 10 µM at hNaV1.2 (SCN2A) was under 5%.
For the molecule `CC(C)(C)OC(=O)N1CCOC[C@H]1COc1noc2ccc(-c3ccc(OC(F)(F)F)cc3)cc12` [Example 111, tert-butyl(S)-3-(((5-(4-(trifluoromethoxy)phenyl)benzo[d]isoxazol-3-yl)oxy)methyl)morpholine-4-carboxylate], the figures for the inhibition at 3 µM in assay [1] (setting [2]) and in assay [1] (setting [3]) were under 5% and 7.3%, respectively. Also, the inhibition at 10 µM on hNaV1.2 (SCN2A) amounted to 47.3%.
Taken in the same sequence, the figures for `Cc1cn(-c2noc3ccc(-c4ccc(OC(F)(F)F)cc4)cc23)cn1` [Example 139, 3-(4-methyl-1H-imidazol-1-yl)-5-(4-(trifluoromethoxy)phenyl)benzo[d]isoxazole] were 15.6%, under 5% and 26.1%.
